We go through 1 compound from US12714698B2, “Compositions and methods for treating or preventing dermal disorders” (Drexel University, priority 2015, dated 2026).

Test [1] relates to seborrheic keratosis lesion. Kind of test: Topical treatment of a seborrheic keratosis lesion. As to conditions: 21 days, 10 μM rapamycin in an emulsified gel preparation. Format: in vivo, human. How it is done:
FIG. 20 is a photograph of a seborrheic keratosis lesion before and after 21 days of treatment with 10 μM rapamycin in an emulsified gel preparation as in FIG. 19.

The subject of test [2] is human cardiac fibroblasts. Kind of test: Mitochondrial membrane potential, mass, superoxide and total ROS by flow cytometry. As to conditions: cultures grown with 1 nM rapamycin, NRTIs 7 days. Format: cell-based. How it is done:
(§1) Cell culture experiments utilizing NRTIs were of the following design. Cultures of either human lung or cardiac fibroblasts were cultivated according to standard culture protocols for these cells (Cristofalo, et al., Journal of Tissue Culture Methods 1980, 6:117-121). Parallel sets of cultures were maintained in normal growth media or in normal growth media with the addition of 1 nM rapamycin. Cultures were maintained with 1 nM rapamycin (Enzo Biologicals) for two weeks before exposure to NRTIs. Cell cultures were exposed to NRTIs at indicated concentrations in individual experiments (generally 10-20 μg/ml) for 7 days, with a change of media and fresh NRTIs at day 4. Mitochondrial measurements, bioanalyzer measurements, immunoblotting for protein expression and phosphorylation status, and assays for senescence were performed at the end of this 7-day period.
(§2) Cell culture reagents were from Cellgro, unless indicated. WI-38 fetal-lung primary human fibroblasts or human cardiac fibroblasts were grown in MEM supplemented with 10% fetal bovine serum, 1% L-glutamine, MEM vitamins, and MEM non-essential amino acids. Cells were maintained in a 37° C. in 5% CO2 incubator. For treatment studies, cells were treated with 1 nM rapamycin (Enzo Biologicals) for two weeks before treatment with NRTIs. Cells were maintained by trypsinization and reseeding at a cell density of 1×10^4/cm^2 every 7 to 10 days. Emtricitabine (FTC) and tenofovir disoproxil fumarate (TDF) were kindly provided by the NIH AIDS Research & Reference Reagent program. During the 7-day exposure to the NRTIs, the pharmacologic inhibitors PD98059 (10 μM, Santa Cruz Biotechnologies), BI-D1870, GW5074, and SB203580 (10 μM, Enzo Biologicals) were added to the culture medium either during the final 48 hours or for the final 2 hours depending upon the experiment. During the 7-day exposure to NRTIs, Trolox (500 μM) and N-acetylcysteine (100 μM, Acros Organics) were added every other day. Mito-Q (20 nM) and TPP (20 nM) were kindly provided by Dr. Brett Kaufmann at the University of Pennsylvania School of Veterinary Medicine. Vector and mt-catalase adenoviruses (MOI's 25, 50, and 75) were purchased from Gene Transfer Vector Core from the University of Iowa.
Mitochondrial membrane potential was detected by incubating cells with 25 nM TMRE (Molecular Probes). Mitochondrial mass was evaluated by incubating the cells with 100 nM Mitotracker Green FM (Molecular Probes). Mitochondrial superoxide anion levels were detected by incubating the cells with 5 μM MitoSox Red (Molecular Probes). Total cellular levels of ROS were detected by incubating the cells with 10 μM 2′,7′-dichlorofluoroscein diacetate (DCF-DA; Sigma-Aldrich) in 1% fetal bovine serumsupplemented MEM and washing twice with Krebs Ringer phosphate glucose buffer (145 mM NaCl, 5.7 mM NaH2PO4, 4.86 mM KCL, 0.54 mM CaCl2), 1.22 mM MgSO4, and 5.5 mM glucose) following the incubation period. For the aforementioned assessments, incubation was performed at 37° C. in 5% CO2 for 30 minutes and cells were harvested in 2.5% trypsin-EDTA with serum-containing medium. Cells were immediately analyzed with a Guava EasyCyte Mini employing the Guava Express Plus program (Guava Technologies).
(Flow cytometry measures light scatter and fluorescence of single cells or particles in a stream.)

Test [3] concerns human cardiac fibroblasts. Kind of test: Immunoblot of senescence markers (p53, p21, p16, lamin B1, IL-6). Format: cell-based. How it is done:
as §1, §2
Cell protein extracts were prepared by extracting with radioimmunoprecipitation assay (RIPA) buffer containing a protease inhibitor cocktail (Sigma-Aldrich) and phosphatase inhibitors, NaF and sodium orthovanadate. Protein concentration was quantified using a bicinchoninic acid (BCA) assay (Pierce Biotechnology). […] For co-immunoprecipitation, cell protein extracts were prepared in HNTG buffer containing a protease inhibitor cocktail and quantified using BCA assay. […]
A general note: Immunoblotting shows a protein as a band on a membrane.

For test [4], the system named is human cardiac fibroblasts. Kind of test: Mitochondrial respiration, Seahorse XF24 Bioanalyzer. Format: cell-based. How it is done: Cell culture experiments utilizing NRTIs were of the following design. Cultures of either human lung or cardiac fibroblasts were cultivated according to standard culture protocols for these cells (Cristofalo, et al., Journal of Tissue Culture Methods 1980, 6:117-121). Parallel sets of cultures were maintained in normal growth media or in normal growth media with the addition of 1 nM rapamycin. Cultures were maintained with 1 nM rapamycin (Enzo Biologicals) for two weeks before exposure to NRTIs. […] Mitochondrial measurements, bioanalyzer measurements, immunoblotting for protein expression and phosphorylation status, and assays for senescence were performed at the end of this 7-day period. Mitochondrial function was measured using the XF cell mito stress test kit on a Seahorse XF24 Bioanalyzer (Seahorse Bioscience). Cells were seeded at a density of 15,000 cells per well in an XF24 microplate. Following acquisition, results were normalized based upon 10^6 cells counted using a Guava EasyCyte Mini (Millipore), where applicable. […] Respiration rates and proton leak were assessed as outlined in published methods (Hill, et al., Biological chemistry 2012, 393:1485-1512). Mitochondrial respiration was calculated based upon oxygen consumption rate measurements in triplicates from cells seeded in at least quadruplicates. Basal respiration represents the initial oxygen consumption rate measurements and maximal respiration represents the oxygen consumption rate measurements following FCCP addition. ATP-linked respiration is represented as the oligomycin-sensitive oxygen change to basal oxygen consumption rate. Proton leak represents the oligmycin insensitive oxygen consumption rate. […] All data was normalized to cell number by counting cells in each well at the completion of the mitochondrial assessments.

As to `CO[C@H]1C[C@@H]2CC[C@@H](C)[C@@](O)(O2)C(=O)C(=O)N2CCCC[C@H]2C(=O)O[C@H]([C@H](C)C[C@@H]2CC[C@@H](O)[C@H](OC)C2)CC(=O)[C@H](C)/C=C(\C)[C@@H](O)[C@@H](OC)C(=O)[C@H](C)C[C@H](C)/C=C/C=C/C=C/1C` [rapamycin], the “severity of seborrheic keratosis lesion, visual inspection” value in test [1] is “significant reduction in severity”. Besides, in test [2], the “mitochondrial ROS following exposure to NRTIs” value is “did not exhibit the same level of increase”, the “mitochondrial membrane potential following exposure to NRTIs” value is “did not exhibit the same level of increase” and the “total cellular ROS following exposure to NRTIs” value was “did not exhibit the same level of increase”. For the same compound, in test [3] (rapamycin (1 nM)), the “NRTI-induced decrease of lamin B1” value was “prevented this decrease”. Also, in test [3] (rapamycin treated cells (1 nM)), the “levels of IL-6 following exposure to NRTIs” value was “no increase”; the “levels of p53, p21 and p16 on NRTI exposure” value was “did not increase”. Besides, in test [4] (rapamycin-treated (1 nM) vs standard culture), the basal respiration result was “significantly lower”. For the same compound, in test [4] (rapamycin-treated cells (1 nM)), the “basal respiration when exposed to NRTIs” value is “did not exhibit an increase”, the “maximal respiration when exposed to NRTIs” value is “did not exhibit an increase” and the “proton leak following exposure to NRTIs” value was “did not exhibit an increase”. The ATP-linked respiration entry in test [4] (rapamycin-treated cultures (1 nM)) is “reduced”.
